For the test, the system named is Zika virus strain MR766. Type of test: cell-based. As to conditions: for effect on replication of Zika virus (percent infected cells, FIG. 1): Vero cells infected 48 h with ZIKV MR766, MOI 0.3-0.5, compound added at time of infection, DMSO control. How it is done: FIG. 1 is a bar graph showing the results of experiments wherein Vero cells were infected for 48 h with Zika virus MR766 and stained for DNA and double stranded viral RNA. The indicated compounds at the indicated concentrations were added at the time of infection. Mean percent infected cells of n=3 experiments are shown +/−SD.
FIG. 2 is a set of images of Vero cells infected for 48 h with Zika virus MR766 and stained for DNA (blue) and double stranded viral RNA (green). Either Lanatoside 6 nM or DMSO (v/v) was added at the time of infection. Mean percent infected cells of n=3 experiments are shown +/−SD.
The effects of a number of small molecules previously reported to be effective in inhibiting replication of related viruses were evaluated on replication of the Zika virus using an immunofluorescence readout for viral protein expression. Molecules tested included Ivermectin 18898-1G; Mycophenolic acid M3536-50MG; Brequinar SML0113-5MG; Sodium Oxamate O2751-5G; Chloroquine C6628-25G; Hydroxychloroquine H0915-5MG; and Lanatoside C L2261-100MG.
Cells: Vero cells (ATCC, CCL-81) were cultured in complete Dulbecco's Modified Eagle Media (Sigma) with 10% FBS (Invitrogen) and 2 mM L-glutamine (Invitrogen).
Viruses: Zika virus strain MR766 was kindly provided by Dr. Robert Tesh at the World Reference Center for Emerging Viruses and Arboviruses at the University of Texas Medical Branch in Galveston Tex. MR766 was obtained originally from a Rhesus macaque in Uganda in 1947. Viruses were propagated in Vero cells (ATCC) (Dick et al., 1952) and the titer determined by standard plaque assays and immunofluorescence imaging assays for E protein expression.
Infection assays: Vero cells were plated the night before in a 384-well plate format. The following day the cells were infected with ZIKV MR766 at an MOI of 0.3-0.5 in the presence of the indicated compounds or the DMSO control (v/v). 48 hr post-infection the cells are fixed with formalin, permeabilized with 0.1% Triton-X100 and immunostained using the 4G2 monoclonal antibody against the E protein. The cells were then incubated with an Alexa Fluor 488 goat anti-mouse secondary and stained for DNA with Hoechst 33342. The cells were imaged on an automated Image Express Micro (IXM) microscope at 4× magnification. Images were analyzed using the MetaXpress software program to determine the total cells per well, and the percentage of infected cells in each well.

Take `CC(=O)O[C@H]1C[C@H](O[C@H]2[C@@H](O)C[C@H](O[C@H]3[C@@H](O)C[C@H](O[C@H]4CC[C@@]5(C)[C@H](CC[C@@H]6[C@@H]5C[C@@H](O)[C@]5(C)[C@@H](C7=CC(=O)OC7)CC[C@]65O)C4)O[C@@H]3C)O[C@@H]2C)O[C@H](C)[C@H]1O[C@@H]1O[C@H](CO)[C@@H](O)[C@H](O)[C@H]1O` [Lanatoside C, 3β-[4-O-β-D-Glycopyranosyl-4-O-(3-O-acetyl-β-D-digitoxopyranosyl)-4-O-β-D-digitoxopyranosyl-β-D-digitoxopyranosyl]-12β,14-dihydroxy-5β,14β-card-20(22)-enolid]: the “effect on replication of Zika virus (percent infected cells, FIG. 1)” value is recorded as “significant effect”. Further, under “Vero cells infected 48 h with ZIKV MR766, Lanatoside 6 nM vs DMSO added at time of infection”, the “stopping replication of the virus (FIG. 2)” value is “effective at stopping replication of the virus”. With “22,23-dihydroavermectin B1a+22,23-dihydroavermectin B1b [ivermectin]”, the “effect on replication of Zika virus (percent infected cells, FIG. 1)” value is reported as “significant effect”. On the same count and under the same terms, the entry for `NC(=O)c1ncn([C@@H]2O[C@H](CO)[C@@H](O)[C@H]2O)n1` [ribavirin, 1-[(2R,3R,4S,5R)-3,4-dihydroxy-5-(hydroxymethyl)oxolan-2-yl]-1H-1,2,4-triazole-3-carboxamide] is “significant effect”.

The record behind these values is patent publication US20190216835A1 (priority 2016, published 2019).
